According to US20170333591A9, “ABSORBENT ARTICLE COMPRISING MALODOR REDUCTION COMPOSITIONS” (The Procter & Gamble Company, priority 2014, published 2017):

Test: Log of liquid dish neat product liquid-air partition coefficient
Assay type: physicochemical
Conditions: not given

Q: Which “Comment Code: Log of liquid dish neat product liquid-air partition coefficient” value (“Comment Code: Log” below) does the source give for C=C1C2CCC(C)(C)C1CCC(OC)C2 (stereo not shown) [Material 7] here?
A: K (Log of liquid dish neat product liquid-air partition coefficient greater than or equal to 7)

Q: Which “Comment Code: Log” value does the source give for CCOC1CCC(C(C)(C)CC)CC1 (stereo not shown) [Material 12] here?
A: K (Log of liquid dish neat product liquid-air partition coefficient greater than or equal to 7)

Q: Which “Comment Code: Log” value does the source give for CC1C(C)(C)C2=C(C3OC(C)(C)OC3CC2)C1(C)C (stereo not shown) [Material 23] here?
A: K (Log of liquid dish neat product liquid-air partition coefficient greater than or equal to 7)

Q: For COc1ccccc1C=CC=O [Material 26], which “Comment Code: Log” value is on record?
A: K (Log of liquid dish neat product liquid-air partition coefficient greater than or equal to 7)

Same assay, conditions: code letter within the Comment Code cell

Q: For CC(C)=CCCC(C)=CCC1CCCC1=O (racemic) [Material 307], which “Log of liquid dish neat product liquid-air partition coefficient (Comment Code K/L)” value (“Log … (Comment Code K/L)” for short) is on record?
A: K (Log of liquid dish neat product liquid-air partition coefficient greater than or equal to 7)

Q: With C=CC(C)CCC=C(C)CCC=O (racemic) [Material 358] as the molecule, how does the “Log … (Comment Code K/L)” value read?
A: K (Log of liquid dish neat product liquid-air partition coefficient greater than or equal to 7)

Q: Which “Log … (Comment Code K/L)” value does the source give for CCCCCCC#CC(OC)OC [Material 3] here?
A: K (Log of liquid dish neat product liquid-air partition coefficient greater than or equal to 7)

Q: For Cc1ccc(C(C)(C)O)cc1 [Material 4], which “Log … (Comment Code K/L)” value is on record?
A: K (Log of liquid dish neat product liquid-air partition coefficient greater than or equal to 7)

Q: Which “Log … (Comment Code K/L)” value does the source give for C=C1C2CCC(C)(C)C1CCC(OC)C2 (stereo not shown) [Material 7] here?
A: K (Log of liquid dish neat product liquid-air partition coefficient greater than or equal to 7)

Q: With COC1CCCCCCCCCCC1 [Material 9] as the molecule, how does the “Log … (Comment Code K/L)” value read?
A: K (Log of liquid dish neat product liquid-air partition coefficient greater than or equal to 7)

Q: For COC1(OC)CCCCCCCCCCC1 [Material 10], which “Log … (Comment Code K/L)” value is on record?
A: K (Log of liquid dish neat product liquid-air partition coefficient greater than or equal to 7)

Q: For CCCCCCCCCC/C=C\C#N [Material 11], which “Log … (Comment Code K/L)” value is on record?
A: K (Log of liquid dish neat product liquid-air partition coefficient greater than or equal to 7)

Q: For CC1(O)CCOC2(CCCCC2)C1 (stereo not shown) [Material 16], which “Log … (Comment Code K/L)” value is on record?
A: K (Log of liquid dish neat product liquid-air partition coefficient greater than or equal to 7)

Q: Which “Log … (Comment Code K/L)” value does the source give for Cc1ccc2c(c1)OCC(=O)CO2 [Material 17] here?
A: K (Log of liquid dish neat product liquid-air partition coefficient greater than or equal to 7)

Q: With COc1ccccc1-c1ccccc1 [Material 22] as the molecule, how does the “Log … (Comment Code K/L)” value read?
A: K (Log of liquid dish neat product liquid-air partition coefficient greater than or equal to 7)

Q: With CC1C(C)(C)C2=C(C3OC(C)(C)OC3CC2)C1(C)C (stereo not shown) [Material 23] as the molecule, how does the “Log … (Comment Code K/L)” value read?
A: K (Log of liquid dish neat product liquid-air partition coefficient greater than or equal to 7)

Q: For CC(C)C1OC2(CCCC2)OCC1(C)C (stereo not shown) [Material 25], which “Log … (Comment Code K/L)” value is on record?
A: K (Log of liquid dish neat product liquid-air partition coefficient greater than or equal to 7)

Q: With CCCCCCCCOC(=O)c1ccco1 [Material 28] as the molecule, how does the “Log … (Comment Code K/L)” value read?
A: K (Log of liquid dish neat product liquid-air partition coefficient greater than or equal to 7)

Q: With C=CC(=C)CCCC(C)(C)O [Material 34] as the molecule, how does the “Log … (Comment Code K/L)” value read?
A: K (Log of liquid dish neat product liquid-air partition coefficient greater than or equal to 7)

Q: Which “Log … (Comment Code K/L)” value does the source give for C=CC(=C)CCCC(C)(C)OC(C)=O [Material 35] here?
A: K (Log of liquid dish neat product liquid-air partition coefficient greater than or equal to 7)

Q: For CCCCCCCCCCCCCC=O [Material 36], which “Log … (Comment Code K/L)” value is on record?
A: K (Log of liquid dish neat product liquid-air partition coefficient greater than or equal to 7)

Q: For C=CCc1cc(OC)c2c(c1)OCO2 [Material 37], which “Log … (Comment Code K/L)” value is on record?
A: K (Log of liquid dish neat product liquid-air partition coefficient greater than or equal to 7)
